Test results reported in patent US10941379B2, “Microbial system for biosynthesis of natural and engineered products coupled to in situ extraction in supercritical CO2” (Massachusetts Institute of Technology, priority 2016, dated 2021).

What was measured:
[1] = tested on: B. megaterium DSM319; assay: Biolog GenIII sole carbon source growth; format: cell-based, Bacillus megaterium; conditions: no metals added; Table 10
Procedure: (§1) Plates were incubated at 37° C. on a plate shaker at 200 rpm and assayed for growth using NADH-dependent colorimetric changes measured by OD490 on a microplate reader (BioTek Synergy 2; BioTek; Winooski, Vt.).

[2] = tested on: B. megaterium SR7; assay: Biolog GenIII sole carbon source growth; format: cell-based, Bacillus megaterium; conditions: for Growth on Biolog sole carbon source, SR7: no metals added, Table 10; for Growth in carbon source Biolog plate, +Metals: trace metals-amended plate; for Growth in carbon source Biolog plate, +Metals / Growth in carbon source Biolog plate, I / Growth in carbon source Biolog plate, II: Table 11; for Growth in carbon source Biolog plate, I: unamended plate trial I; for Growth in carbon source Biolog plate, II: unamended plate trial II
Procedure: as §1

[3] = tested on: B. megaterium QM B1551; assay: Biolog GenIII sole carbon source growth; format: cell-based, Bacillus megaterium; conditions: no metals added; Table 10
Procedure: as §1

[4] = tested on: B. megaterium SR7 spores; assay: Flow cytometry germination assay (Syto16/PI); format: cell-based, Bacillus megaterium; conditions: PBS amended with 2.5, 25, 250 mM
Procedure: FCM was employed as a high-throughput germination assay based on Baier et al., (2010). Triplicate cultures of B. megaterium SR7 spores loaded at OD600 0.01 were incubated overnight in PBS and PBS amended with 2.5-250 mM L-alanine, along with cell-free PBS controls. Prior to loading on the flow cytometer (BD FACS Canto II HTS-1; Becton Dickinson; Franklin Lakes, N.J.) cultures were diluted 1/50 in PBS and stained with Syto16® and propidium iodide (PI) in the dark for at least 30 minutes prior to analysis. After spore and media-only samples were used to set forward scatter, side-scatter, Syto16 and PI gates, sample data was collected and analyzed using […]™ software (BD Biosciences; Franklin Lakes, N.Y.).

[5] = tested on: B. megaterium SR7 spores; assay: Spore germination and growth under scCO2 with germination inducers; format: cell-based, Bacillus megaterium
Procedure: SR7 growth outcomes were investigated under scCO2 headspace (90-100 atm; 37° C.) while shaking at 250 rpm. SR7 spores were inoculated at starting concentrations of ˜3×10^4 spores/ml (unless otherwise specified) in either 50 mM K2HPO4-buffered LB (P-LB) or M9+ media (Table 1). Experiments assaying the effect of germination induction included 100 mM L-alanine and 10 mM L-leucine media amendments and heat treatment upon reactor pressurization (70° C. for 10 minutes). Incubations were conducted in 316 stainless steel vessels and gradually pressurized to supercritical conditions using a CO2/He cylinder, as previously described. SR7 germination was verified by the identification of vegetative cell morphologies using fluorescence microscopy of Syto9-stained cultures. Growth was defined by an increase of at least 10-fold growth in cell counts relative to t0.
In order to ascertain whether L-alanine, L-leucine, and heat treatment induce germination under scCO2 headspace, three replicate experiments were conducted comparing growth for SR7 spores when loaded in media P-LB, P-LBL, P-LBAL, or P-LBA±heat treatment (Table 1; Table 2). Reactors were depressurized and scored for germination and growth by fluorescence microscopy, as previously described.
Cell densities of P-LB and L-PBA incubations from the three experiments (Table 3; Incubations A-C) were subjected to statistical analysis to establish the significance of 100 mM L-alanine on spore growth outcomes. A non-parametric Wilcoxon/Kruskal-Wallis Test was performed on the dataset (JMP® Pro v.12; SAS Cary, N.C.) where growth outcome (growth/no growth) and cell density fold change (relative to t0) were dependent variables and incubation time and inducer presence/absence (±100 mM L-alanine) were independent variables. […]

[6] = tested on: B. megaterium SR7 spores; assay: Spore germination in LB under 1 atm CO2; format: cell-based, Bacillus megaterium; conditions: 100 mM L-alanine-amended LB, unamended cultures grew between 4.5 and 6 hours
Procedure: The ability to induce spore germination based on literature precedent was tested by inoculating triplicate 10 ml cultures of SR7 spores at OD600 0.01 in LB amended with 100 mM L-alanine, LB subjected to a heat activation (65° C. for 15 minutes) upon inoculation, or unamended LB as a control. Growth was scored by OD600 and LB agar CFU plate counts. In addition, subsamples were heat-killed by exposure to 80° C. for 10 minutes (Setlow, 2006) prior to plating, to ascertain remaining spore concentrations, as heat exposure is lethal to vegetative cells.

[7] = tested on: B. megaterium SR7 spores; assay: Spore germination induction in PBS under 1 atm CO2 (fluorescence microscopy, bulk fluorescence); format: cell-based, Bacillus megaterium; conditions: 100 mM, 8.5 hour endpoint (maximum)
Procedure: The role of candidate germination inducers was subsequently investigated in PBS buffer rather than growth medium to decouple the germination process from outgrowth. B. megaterium SR7 spores were loaded in triplicate 10 ml PBS amended with 100-250 mM L-alanine, 100 mM L-alanine with heat treatment, 25 mM L-leucine, or an unamended PBS control. The extent of germination was measured by fluorescence microscopy staining patterns (e.g., the degree of cell membrane penetration by DNA stain), bulk fluorescence, OD600, and flow cytometry (FCM). A total of 100-300 cells per filter were counted and categorized as either “dormant” or “germinated” if the spore stain was localized to the cell membrane or diffused within the interior of the cell, respectively (Cronin and Wilkinson, 2007). Cells displaying an intermediate degree of stain dispersal (“activated”) were categorized as germinated (FIG. 1).
Sub-sample bulk fluorescence (Syto9®) was measured by microplate reader (BioTek Synergy 2; 485/20 excitation, 528/20 emission) and OD600 was measured by microplate reader. OD should decrease in germinated cells (the index of refraction decreases due to hydration upon spore coat degradation) while bulk fluorescence should increase as the nucleic acid stain progressively penetrates and permeates the cell (Magge et al., 2009). […]

[8] = tested on: B. megaterium SR7 spores; assay: Delayed germination induction in PBS under 1 atm CO2 (bulk fluorescence, OD600); format: cell-based, Bacillus megaterium; conditions: 9.5 hours after delayed induction in PBS; for OD600 Fold Decrease: OD decrease indicative of germination
Procedure: Sub-sample bulk fluorescence (Syto9®) was measured by microplate reader (BioTek Synergy 2; 485/20 excitation, 528/20 emission) and OD600 was measured by microplate reader. OD should decrease in germinated cells (the index of refraction decreases due to hydration upon spore coat degradation) while bulk fluorescence should increase as the nucleic acid stain progressively penetrates and permeates the cell (Magge et al., 2009). To test for germination after a delayed inducer spike rather than at the moment of inoculation, B. megaterium SR7 spores loaded at OD600 0.01 were incubated overnight in 30 ml of PBS, passaged into PBS amended with L-alanine (25-250 mM) or L-leucine (10-25 mM) and then assayed for germination by bulk fluorescence and OD600 during incubation.

[9] = tested on: B. megaterium SR7; conditions: LB, aerobic
Procedure: To help guide optimization of growth conditions for strain SR7, physiological tests were conducted under aerobic conditions. To determine tolerance for pH, salinity and bicarbonate, high throughput culturing was done in 96 well plates and scored for growth by OD600 using a microplate reader (BioTek Synergy 2; BioTek; Winooski, Vt.). 200 uL LB solutions/well were inoculated in triplicate with 10^4 spores/ml (based on SR7 spore stock filter counts) and incubated on a plate rocker at 37° C. with unamended positive and cell-free negative LB controls. Tests for pH tolerance (pH 2-10) were conducted in LB medium amended with HCl or NaOH. The effect of salinity and bicarbonate on growth was determined by adding NaCl (1-10%) and NaHCO3 (0.1-0.5M), respectively, to LB media. Optimal SR7 growth temperature was tested by inoculating 10^4 spores/ml in 5 ml of LB in triplicate at temperatures of 9-55° C. Cultures and cell-free negative controls were incubated without shaking, with subsamples taken for periodic OD600 measurements. SR7 antibiotic sensitivity was determined by supplementing 5 ml LB with ampicillin (5-50 μg/ml), chloramphenicol (3.5-35 μg/ml), kanamycin (5-50 μg/ml), spectinomycin (10-100 μg/ml), streptomycin (10-100 μg/ml), or tetracycline (1.5-15 μg/ml).

[10] = pooled incubations, 18-20 days, unamended reactors 36%
[11] = assayed 0, 5, 10, 50, 80, 100 g/L over 36 h
[12] = assayed 0, 100, 300, 500 mM over 36 h

SMILES	Growth on Biolog sole carbon source, DSM319 [1]	Growth on Biolog sole carbon source, SR7 [2]	Growth in carbon source Biolog plate, +Metals [2]	Growth in carbon source Biolog plate, I [2]	Growth in carbon source Biolog plate, II [2]	Growth on Biolog sole carbon source, QM B1551 [3]	other results
OC[C@@H](O)[C@@H](O)[C@H](O)[C@H](O)CO [D-Mannitol]	+++	+	+	+	+	+	
O=C(O)[C@@H](O)[C@@H](O)[C@H](O)[C@@H](O)C(=O)O [D-Saccharic Acid]	−	−	−	−	+	+++	
N[C@@H](CC(=O)O)C(=O)O [L-Aspartic Acid]	+++	+	+++	+	+	+	
N[C@@H](CCC(=O)O)C(=O)O [L-Glutamic Acid]	+++	+	+++	+	+	+++	
N[C@@H](Cc1c[nH]cn1)C(=O)O [L-Histidine]	+++	+	+	+	+	+	
C[C@H](O)C(=O)O [L-Lactic Acid]	+++	+	+	+	+	+++	
O=C(O)C[C@H](O)C(=O)O [L-Malic Acid]	+++	+++	+		+++	+++	
C[C@H](N)C(=O)O [L-alanine]			+	+	+		Spores gated as germinated (Syto16/PI fluorescence) ([4]; PBS only 3.7%): 1.38-31.8%; Spores gated as activated (Syto16/PI fluorescence) ([4]; PBS only 22.0%): 44-69%; Growth frequency of cultures under scCO2 [5, 10]: 63%; Growth frequency of cultures under scCO2 ([5]; with heat treatment): 50%; Time to germination [6]: ≤ 4.5 h; Bulk fluorescence relative to PBS only incubated spores [7]: 2.4 fold; Fluorescence Fold Increase ([8]; 25 mM inducer): 2.1 fold; OD600 Fold Decrease ([8]; 25 mM inducer): 1.5 fold; Fluorescence Fold Increase ([8]; 100 mM inducer): 1.4 fold; OD600 Fold Decrease ([8]; 100 mM inducer): 1.2 fold; Fluorescence Fold Increase ([8]; 250 mM inducer): 1.4 fold; OD600 Fold Decrease ([8]; 250 mM inducer): 1.2 fold
CC(C)C[C@H](N)C(=O)O [L-leucine]							Growth frequency of cultures under scCO2 [5, 10]: 7.7%; Fluorescence Fold Increase ([8]; 10 mM inducer): 2.0 fold; OD600 Fold Decrease ([8]; 10 mM inducer): 1.2 fold; Fluorescence Fold Increase ([8]; 25 mM inducer): 2.0 fold; OD600 Fold Decrease ([8]; 25 mM inducer): 1.2 fold
CC(=O)N[C@H]1C(O)O[C@H](CO)[C@@H](O)[C@@H]1O (stereo partly drawn) [N-Acetyl-D-Glucosamine]	+++	+		+	+	+	
[Cl-].[Na+] [NaCl]							Optimal for SR7 growth, [NaCl] [9, 11]: 0 to 10 g/L; Range of viable SR7 growth, [NaCl] [9, 11]: 0 to 100 g/L
O=C(O)O [NaHCO3]							Optimal for SR7 growth, NaHCO3 [9, 12]: 0 to 100 mM; Range of viable SR7 growth, NaHCO3 [9, 12]: 0 to 300 mM
OC[C@H]1O[C@@](CO)(O[C@H]2O[C@H](CO)[C@@H](O)[C@H](O)[C@H]2O)[C@@H](O)[C@@H]1O [Sucrose]	+++	−	+	−	+	+	
OC[C@H]1O[C@H](O)[C@H](O)[C@@H](O)[C@@H]1O [α-D-Glucose]	+++	+	+++	+	+	+	
